Data as given in US12479817B2, “Substituted 3-(1-oxoisoindolin-2-yl)piperidine-2,6-dione derivatives and uses thereof” (Novartis AG, priority 2019, dated 2025).

Experiments:
[1] = molecular target: T1, IKZF2 (Homo sapiens, UniProt Q96SW2+Q9UKS7); test: Prolabel quantification of IKZF2 protein levels in 293GT cells; format: cell-based; settings: Pro-label assay in 293GT cells; for IKZF2 Degradation (%): % degradation is at 10 μM; for AC50: read-out: IKZF2 Degradation AC50
T1 construct: expressed in transfected cells
T1 sequence (Q9UKS7 whole entry): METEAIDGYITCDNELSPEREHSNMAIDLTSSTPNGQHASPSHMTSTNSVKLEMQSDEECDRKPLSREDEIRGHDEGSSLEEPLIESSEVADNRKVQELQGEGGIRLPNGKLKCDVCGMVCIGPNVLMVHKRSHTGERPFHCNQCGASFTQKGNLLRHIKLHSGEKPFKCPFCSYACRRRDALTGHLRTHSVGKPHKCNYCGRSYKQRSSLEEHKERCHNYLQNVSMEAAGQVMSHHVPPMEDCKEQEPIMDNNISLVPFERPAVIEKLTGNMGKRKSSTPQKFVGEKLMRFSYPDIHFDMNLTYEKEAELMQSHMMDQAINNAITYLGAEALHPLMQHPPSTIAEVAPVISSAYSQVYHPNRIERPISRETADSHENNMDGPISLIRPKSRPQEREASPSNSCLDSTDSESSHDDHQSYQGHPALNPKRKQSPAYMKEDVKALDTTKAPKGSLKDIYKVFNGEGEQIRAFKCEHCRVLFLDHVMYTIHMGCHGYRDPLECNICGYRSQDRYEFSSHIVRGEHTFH
T1 sequence (Q96SW2 whole entry): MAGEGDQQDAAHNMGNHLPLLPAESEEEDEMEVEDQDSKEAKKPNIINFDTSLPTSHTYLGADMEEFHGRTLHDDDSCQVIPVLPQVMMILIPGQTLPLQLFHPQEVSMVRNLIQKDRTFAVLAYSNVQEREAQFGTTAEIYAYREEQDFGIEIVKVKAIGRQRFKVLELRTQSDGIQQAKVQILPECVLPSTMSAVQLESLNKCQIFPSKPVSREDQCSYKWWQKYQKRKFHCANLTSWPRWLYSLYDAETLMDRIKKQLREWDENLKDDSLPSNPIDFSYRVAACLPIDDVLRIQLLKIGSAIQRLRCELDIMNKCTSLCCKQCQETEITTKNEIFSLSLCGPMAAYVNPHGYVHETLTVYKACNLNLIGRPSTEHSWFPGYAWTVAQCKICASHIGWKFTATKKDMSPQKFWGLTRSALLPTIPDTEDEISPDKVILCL
T1 sequence (Q16531 whole entry partner): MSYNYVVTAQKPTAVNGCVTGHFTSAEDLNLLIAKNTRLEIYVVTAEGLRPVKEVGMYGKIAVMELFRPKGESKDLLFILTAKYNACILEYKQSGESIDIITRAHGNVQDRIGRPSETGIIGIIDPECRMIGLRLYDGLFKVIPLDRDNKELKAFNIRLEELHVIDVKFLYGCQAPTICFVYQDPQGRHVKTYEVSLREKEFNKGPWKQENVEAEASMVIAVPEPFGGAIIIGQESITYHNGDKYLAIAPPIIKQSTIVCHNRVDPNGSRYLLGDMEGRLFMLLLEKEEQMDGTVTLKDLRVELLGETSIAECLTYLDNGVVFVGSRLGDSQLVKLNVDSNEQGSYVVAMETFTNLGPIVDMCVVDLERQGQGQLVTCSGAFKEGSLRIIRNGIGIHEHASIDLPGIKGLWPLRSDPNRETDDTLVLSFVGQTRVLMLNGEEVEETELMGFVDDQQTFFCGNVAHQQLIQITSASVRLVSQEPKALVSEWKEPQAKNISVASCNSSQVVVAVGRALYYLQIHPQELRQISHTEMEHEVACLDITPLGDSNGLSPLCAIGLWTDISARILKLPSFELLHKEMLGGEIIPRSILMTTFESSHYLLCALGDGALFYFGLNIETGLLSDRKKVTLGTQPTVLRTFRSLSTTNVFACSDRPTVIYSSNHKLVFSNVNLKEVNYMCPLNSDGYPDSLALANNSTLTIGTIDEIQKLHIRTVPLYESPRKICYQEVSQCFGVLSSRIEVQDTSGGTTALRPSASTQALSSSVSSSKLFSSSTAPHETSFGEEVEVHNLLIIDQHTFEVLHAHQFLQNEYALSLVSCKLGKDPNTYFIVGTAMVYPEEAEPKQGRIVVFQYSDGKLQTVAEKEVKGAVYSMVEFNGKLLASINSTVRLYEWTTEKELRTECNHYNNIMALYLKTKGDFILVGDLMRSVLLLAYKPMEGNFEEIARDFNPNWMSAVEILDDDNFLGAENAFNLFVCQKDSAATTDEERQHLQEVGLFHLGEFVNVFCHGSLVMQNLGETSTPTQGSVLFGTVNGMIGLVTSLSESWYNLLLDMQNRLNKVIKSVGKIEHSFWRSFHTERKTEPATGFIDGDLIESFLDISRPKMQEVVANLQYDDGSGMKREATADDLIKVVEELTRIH
Description: (§1) The Prolabel system from DiscoverX was used to develop high-throughput and quantitative assays to measure changes in IKZF1, IKZF2 and GSPT1 protein levels in response to compounds. The prolabel tag was derived from the alpha fragment of beta galactosidase and has the following protein sequence: mssnslavvlqadwenpgvtqlnrlaahppfaswrnseeartdrpsqqlislnge. The complementary fragment of beta-galactosidase (from DiscoverX), is added to the prolabel tag to form an active beta galactosidase enzyme whose activity can be precisely measured. In this way, the levels of a fusion protein with the prolabel tag can be quantified in cell lysates.
(§2) Lentiviral vectors, based on the Invitrogen pLenti6.2/V5 DEST backbone, were constructed that placed the prolabel tag upstream of IKZF1, IKZF2 or GSPT1 and expressed the fusion protein from a CMV promoter.
(§3) To ensure moderate and consistent expression of the prolabel fusion proteins across all cells in the population, stable cell lines were constructed from cells expressing a single copy of the construct. Lentivirus packaged with the constructs was made using the Virapower kit from Invitrogen.
(§4) The levels of prolabel tagged fusion proteins in compound treated cell lines were measured as follows:
(§5) Day 1, Cells were diluted to 1.0×10^6 cells/ml in normal growth medium. 17.5 μL, of cells were plated in each well of a solid white 384 well plate. Plates were incubated overnight in a 37° C. tissue culture incubator.
(§6) Day 2, Serial dilutions of compounds were made in 384 well plates from 10 mM stocks. 15 μL, of DMSO was added to each well of a 384 well plate. In the first column, 15 μL of stock compound was added. The solution was mixed and 15 μL was transferred to the next column. This was repeated until 20 two-fold dilutions were prepared. 2.5 μL, of diluted compounds were transferred into 60 μL of cell culture medium in another 384 well plate, and mixed well. 2.5 μL of this mixture was added to the plated cells. The final DMSO concentration was 0.5% and the highest concentration of compound was 50 μM. Plates were incubated overnight (e.g., about 14 h, 18 h, or 24 h) in a 37° C. tissue culture incubator.
(§7) Day 3, Plates were removed from the incubator and allowed to equilibrate at rt for 30 minutes. Prolabel substrate (DiscoverX PathHunter Prolabel Detection Kit, User manual: 93-0180) was added as described by the manufacturers protocols. Plates were incubated at rt for three hours and luminescence was read using an Envision reader (Perkin Elmer) Data was analyzed and visualized using the Spotfire software package.

[2] = molecular target: T2, IKZF1 (Homo sapiens, UniProt Q13422+Q96SW2); test: Prolabel quantification of IKZF1 protein levels in 293GT cells; format: cell-based; settings: Pro-label assay in 293GT cells; for IKZF1 Degradation (%): % degradation is at 10 μM; for AC50: read-out: IKZF1 Degradation AC50
T2 construct: expressed in transfected cells
T2 sequence (Q13422 whole entry): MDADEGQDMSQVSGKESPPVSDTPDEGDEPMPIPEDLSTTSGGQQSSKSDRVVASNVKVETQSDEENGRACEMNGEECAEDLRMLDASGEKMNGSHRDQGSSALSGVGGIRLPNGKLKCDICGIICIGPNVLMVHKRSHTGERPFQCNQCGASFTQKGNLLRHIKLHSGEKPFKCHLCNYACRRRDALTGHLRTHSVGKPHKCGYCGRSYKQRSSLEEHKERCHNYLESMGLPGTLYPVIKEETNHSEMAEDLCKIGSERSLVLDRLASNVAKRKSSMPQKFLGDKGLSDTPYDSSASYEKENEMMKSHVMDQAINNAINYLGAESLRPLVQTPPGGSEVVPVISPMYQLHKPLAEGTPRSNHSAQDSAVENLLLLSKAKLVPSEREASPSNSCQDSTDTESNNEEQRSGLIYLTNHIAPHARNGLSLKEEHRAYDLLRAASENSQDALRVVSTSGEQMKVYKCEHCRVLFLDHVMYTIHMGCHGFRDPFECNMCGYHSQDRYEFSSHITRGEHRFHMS
T2 sequence (Q96SW2 whole entry): as the sequence (Q96SW2 whole entry) above
T2 sequence (Q16531 whole entry partner): as the sequence (Q16531 whole entry partner) above
Description: as §1, §2, §3, §4, §5, §6, §7

Row | Compound | IKZF2 Degradation (%) [1] [%] | AC50 [1] [nM] | IKZF1 Degradation (%) [2] [%] | AC50 [2] [µM]
1 | Nc1cccc2c1C(=O)N(C1CCC(=O)NC1=O)C2=O (stereo not drawn) [Pomalidomide, 4-amino-2-(2,6-dioxopiperidin-3-yl)isoindoline-1,3-dione, reference compound] | – | – | 80 | –
2 | O=C1CCC(N2Cc3cc(C4CCN(Cc5ccccc5)CC4)ncc3C2=O)C(=O)N1 (stereo not drawn) [Compound I-2, 3-(6-(1-benzylpiperidin-4-yl)-3-oxo-1,3-dihydro-2H-pyrrolo[3,4-c]pyridin-2-yl)piperidine-2,6-dione] | – | > 30000 | – | > 30
3 | COc1c(C2=CCN(Cc3ccccc3)CC2)ccc2c1CN(C1CCC(=O)NC1=O)C2=O (stereo not drawn) [Compound I-20, 3-(5-(1-benzyl-1,2,3,6-tetrahydropyridin-4-yl)-4-methoxy-1-oxoisoindolin-2-yl)piperidine-2,6-dione] | 42 | 200 | 40 | 0.066
4 | O=C1CCC(N2Cc3nc(C4CCN(Cc5ccccc5)CC4)ccc3C2=O)C(=O)N1 (stereo not drawn) [Compound I-1, 3-(2-(1-benzylpiperidin-4-yl)-5-oxo-5,7-dihydro-6H-pyrrolo[3,4-b]pyridin-6-yl)piperidine-2,6-dione] | 33 | 260 | – | > 30
5 | O=C1CCC(N2Cc3cc(C4CCN(Cc5ccncc5)CC4)c(F)cc3C2=O)C(=O)N1 (stereo not drawn) [Compound I-16, 3-(6-fluoro-1-oxo-5-(1-(pyridin-4-ylmethyl)piperidin-4-yl)isoindolin-2-yl)piperidine-2,6-dione] | 42 | 560 | 22 | 7.6

The remaining lines, values ahead:

Row | IKZF2 Degradation (%) [1] [%] | AC50 [1] [nM] | IKZF1 Degradation (%) [2] [%] | AC50 [2] [µM] | Compound
6 | 30 | 75 | 40 | 0.13 | CO[C@H]1CC[C@H](CN2CCC(c3ccc4c(c3Cl)CN(C3CCC(=O)NC3=O)C4=O)CC2)CC1 (stereo partly drawn) [Compound I-17, 3-(4-chloro-5-(1-(((1r,4r)-4-methoxycyclohexyl)methyl)piperidin-4-yl)-1-oxoisoindolin-2-yl)piperidine-2,6-dione]
7 | 59 | 110 | – | > 30 | Cc1c(C2CCN(Cc3ccccc3)CC2)ccc2c1CN(C1CCC(=O)NC1=O)C2=O (stereo not drawn) [Compound I-5, 3-(5-(1-benzylpiperidin-4-yl)-4-methyl-1-oxoisoindolin-2-yl)piperidine-2,6-dione]
8 | 72 | 6 | – | > 30 | O=C1CCC(N2Cc3c(ccc(C4CCN(Cc5ccccc5)CC4)c3F)C2=O)C(=O)N1 (stereo not drawn) [Compound I-3, 3-(5-(1-benzylpiperidin-4-yl)-4-fluoro-1-oxoisoindolin-2-yl)piperidine-2,6-dione]
